Laboratory results from patent publication US20060121480A1, “Synergistic compositions for the prevention and treatment of acquired immunodeficiency syndrome” (priority 2002, published 2006).
Like-named read-outs stand apart in the source and are kept apart here.

Assays:
HIV-1 302076 (pediatric) [1] = settings: PBMC
Procedure: (§1) Viruses: 6 viruses were titrated.
(§2) 512.2 μl of HIV-1 302076 was added into 9487.8 μl R-3 medium. 512.2 μl of HIV-1 302077 was added into 9487.8 μl R-3 medium. 126.3 μl of HIV-1 302143 was added into 9873.7 μl R-3 medium. 1002.4 μl of HIV-1 301714 was added into 8997.6 R-3 medium. 2000 μl of HIV-1m 2054 was added into 8000.0 μl R-3 medium. 4000 μl of HTLV-IIIB was added into 6000 R-3 μl medium. Viruses were diluted to 100 TCID50 virus stock: 2.5 ml of 2000 TCID50/ml was added to 2.5 ml of R-3 medium, this is 100 TCID50 (in 100 μl) stock. PBMC: Peripheral blood mononuclear cells (PBMC) were separated from HI-1-uninfected donor by Ficoll-hypaque density gradient centrifugation. PBMC were grown in RPMI 1640 supplemented with 20% fetal calf serum, 5% IL-2 and 5 μg/ml PHA (R-3 medium).
(§3) The final three tubes are added to 100 μl PBS. […] The final 3 tubes are added with 100 μPBS. […] The final 3 tubes are added to 100 μl PBS. 100 μl of 100 TCID50 virus stock were aliquoted into all 63 tubes. 2×10^6 PBMC was added in 1.8 ml of R-3 medium (total 2.0 ml per tube). The tubes were incubated at 37° C. overnight.
(§4) The cells were washed 3 times in PBS. […] HIV-1 P24 antigen measurement was performed in the supernatant of each coculture well on days 4 and 7.0.5 ml cells (10^6/ml) in R-3 medium were added on day 4.

HIV-1 302077 (pediatric) [2] = settings: PBMC
Procedure: as §1, §2, §3, §4

HIV-1 302143 (pediatric) [3] = settings: PBMC
Procedure: as §1, §2, §3, §4

HTLV-IIIB (lab) [4] = settings: PBMC
Procedure: as §1, §2, §3, §4

HIV-1 302076 (pediatric) [5] = settings: PBMC; remark: listed apart in the source
Procedure: as §1, §2
(§5) The above step was repeated for 1:156.25, 781.25, 3906.25 and 19531.25 dilutions. Finally, the concentrations used in the experiment were 2, 0.4, 0.08, 0.016, 0.0032, 0.00064 μg/ml.
(§6) The above step was repeated for 1:625, 1:3125, 1:15625, 1:78125 and 390625 dilution. Finally, the concentrations used in the experiment were 1. 0.2.0.04, 0.008, 0.0016, 0.00032 μg/ml.
as §3, §4

HIV-1 302077 (pediatric) [6] = settings: PBMC; remark: listed apart in the source
Procedure: as §1, §2, §5, §6, §3, §4

HIV-1 302143 (pediatric) [7] = settings: PBMC; remark: listed apart in the source
Procedure: as §1, §2, §5, §6, §3, §4

HTLV-IIIB (lab) [8] = settings: PBMC; remark: listed apart in the source
Procedure: as §1, §2, §5, §6, §3, §4

HIV-1 301714 (adult) [9] = experiment: HIV-1 P24 antigen in PBMC coculture, continuous drug exposure; format: cell-based
Procedure: (§7) Viruses: 6 viruses were titrated. The TCID50/ml of each virus isolate was as the follows:
as §2
(§8) The final 3 tubes are added with 100 μPBS. […] The tubes were incubated at 37° C. overnight.
(§9) The cells were washed 3 times in PBS.

HIV-1 2054 (adult) [10] = experiment: as above; format: cell-based
Procedure: as §7, §2, §8, §9

HIV-1 301714 (adult) [11] = experiment: HIV-1 P24 antigen in PBMC coculture, drug exposure at infection and for 12 hours thereafter; format: cell-based
Procedure: as §7, §2, §5
(§10) The above step was repeated for 1:625, 1:3125, 1:15625, 1:78125 and 390625 dilution. Finally, the concentrations used in the experiment were 1.
as §8, §9

HIV-1 2054 (adult) [12] = experiment: as above; format: cell-based
Procedure: as §7, §2, §5, §10, §8, §9

[13] = day 4, continuous drug exposure
[14] = day 7, continuous drug exposure
[15] = HIV-1 301714, day 4, continuous drug exposure
[16] = HIV-1 301714, day 7, continuous drug exposure
[17] = HIV-1 2054, day 4, continuous drug exposure
[18] = HIV-1 2054, day 7, continuous drug exposure
[19] = HIV-1 301714, day 4, drugs removed after 12 hours
[20] = HIV-1 301714, day 7, drugs removed after 12 hours
[21] = HIV-1 2054, day 4, drugs removed after 12 hours
[22] = HIV-1 2054, day 7, drugs removed after 12 hours

| Substance | IC50 (HTLV-IIIB (lab) [4]; [13]) | IC50 (HTLV-IIIB (lab) [4]; [14]) | IC50 (HIV-1 301714 (adult) [9]; [15]) | IC50 (HIV-1 301714 (adult) [9]; [16]) | IC50 (HIV-1 2054 (adult) [10]; [17]) | IC50 (HIV-1 2054 (adult) [10]; [18]) | IC50 (HIV-1 301714 (adult) [11]; [19]) | IC50 (HIV-1 301714 (adult) [11]; [20]) | IC50 (HIV-1 2054 (adult) [12]; [21]) | IC50 (HIV-1 2054 (adult) [12]; [22]) | also measured |
| --- | --- | --- | --- | --- | --- | --- | --- | --- | --- | --- | --- |
| 5A8: humanized monoclonal antibody to CD4 | 0.19 µg/mL | 0.16 µg/mL | 0.14 µg/mL | 0.30 µg/mL | 0.041 µg/mL | 0.017 µg/mL | 0.70 µg/mL | 1.82 µg/mL | 0.070 µg/mL | 0.13 µg/mL | IC50 (HIV-1 302076 (pediatric) [1]; HIV-1 302076, day 4, continuous drug exposure): 0.10 µg/mL; IC50 (HIV-1 302076 (pediatric) [1]; HIV-1 302076, day 7, continuous drug exposure): 0.028 µg/mL; IC50 (HIV-1 302077 (pediatric) [2]; HIV-1 302077, day 4, continuous drug exposure): 0.14 µg/mL; IC50 (HIV-1 302077 (pediatric) [2]; HIV-1 302077, day 7, continuous drug exposure): 0.067 µg/mL; IC50 (HIV-1 302143 (pediatric) [3]; HIV-1 302143, day 4, continuous drug exposure): 0.038 µg/mL; IC50 (HIV-1 302143 (pediatric) [3]; HIV-1 302143, day 7, continuous drug exposure): 0.022 µg/mL; IC50 (HIV-1 302076 (pediatric) [5]; HIV-1 302076, day 4, drugs removed after 12 hours): 0.15 µg/mL; IC50 (HIV-1 302076 (pediatric) [5]; HIV-1 302076, day 7, drugs removed after 12 hours): 0.65 µg/mL; IC50 (HIV-1 302077 (pediatric) [6]; HIV-1 302077, day 4, drugs removed after 12 hours): 0.17 µg/mL; IC50 (HIV-1 302077 (pediatric) [6]; HIV-1 302077, day 7, drugs removed after 12 hours): 0.50 µg/mL; IC50 (HIV-1 302143 (pediatric) [7]; HIV-1 302143, day 4, drugs removed after 12 hours): 0.97 µg/mL; IC50 (HIV-1 302143 (pediatric) [7]; HIV-1 302143, day 7, drugs removed after 12 hours): >2.0 µg/mL; IC50 (HTLV-IIIB (lab) [8]; day 4, drugs removed after 12 hours): 0.44 µg/mL; IC50 (HTLV-IIIB (lab) [8]; day 7, drugs removed after 12 hours): 1.30 µg/mL |
| enfuvirtide | 0.017 µg/mL | 0.013 µg/mL | 0.049 µg/mL | 0.040 µg/mL | 0.019 µg/mL | 0.16 µg/mL | 0.20 µg/mL | 0.050 µg/mL | 0.039 µg/mL | 0.11 µg/mL | – |
